Test results as given in patent publication US20130237556A1, “BERBERINE ALKALOID AS A MEDICAMENT FOR PREVENTION AND TREATMENT OF NEURAL DISEASE” (HONG KONG BAPTIST UNIVERSITY, priority 2012, published 2013).

Assays:
[1] = test system: N2a-SwedAPP cells; test: Immunofluorescence of p-APP in endosomal compartments (Rab5); format: cell-based, mouse; details: 20 μM BBR, 3 h
Description: N2a-SweAPP cells are mouse neuroblastoma N2a cells stably transfected with human Swedish mutant APP695, and were gifts from Dr. Gopal Thinakaran (University of Chicago, Chicago Ill.). Cells were maintained in Dulbecco's modified Eagle's medium (DMEM) (Invitrogen, Carlsbad, Calif.) supplemented with 10% fetal bovine serum, penicillin and streptomycin and 200 μg/mL G418 (Invitrogen). Cells were cultured either in multiwell dishes or on 60 mm tissue culture plates in DMEM 10% with FBS Cell cultures were incubated at 37° C. in a humid 5% CO2/ 95% air environment. After cells were grown close to confluence, they were treated with/without different concentrations of BBR in DMEM (1% FBS) for 24 h. […]
For higher resolution microscopy, images were acquired using an Olympus IX70 Delta Vision microscopy system (Applied Precision, Issaquah, Wash.) with a 100×1.5 numerical aperture oil immersion lens. […] Subsequently serial Z-stacks of fluorescence images at 0.2-μm interval were acquired and deconvolved via a controlled iterative algorithm to generate high-resolution images of cells using […] (Applied Precision).

[2] = test system: N2a-SwedAPP cells; test: MTT toxicity assay; format: cell-based, mouse; details: up to 25 μM BBR, 24 h
Description: N2a-SweAPP cells are mouse neuroblastoma N2a cells stably transfected with human Swedish mutant APP695, and were gifts from Dr. Gopal Thinakaran (University of Chicago, Chicago Ill.). Cells were maintained in Dulbecco's modified Eagle's medium (DMEM) (Invitrogen, Carlsbad, Calif.) supplemented with 10% fetal bovine serum, penicillin and streptomycin and 200 μg/mL G418 (Invitrogen). Cells were cultured either in multiwell dishes or on 60 mm tissue culture plates in DMEM 10% with FBS Cell cultures were incubated at 37° C. in a humid 5% CO2/ 95% air environment. After cells were grown close to confluence, they were treated with/without different concentrations of BBR in DMEM (1% FBS) for 24 h. […] For the concentration-dependent treatment, cells were treated with serial dilutions of BBR ranging from 0-20 μM for 2 or 12 h prior to lysis with ice-cold RIPA buffer (20 mM Tris, pH 7.4, 150 mM NaCl, 1% triton-X, 0.5% sodium deoxycholate, EDTA) containing protease inhibitor cocktails (EMD chemicals, Philadelphia, Pa.) to find the optimal range of BBR. For the time-dependent application, cells were treated with a 20 μM concentration of BBR and incubated at time points ranging from 0-180 min prior to lysis. For immunofluorescent staining, N2a-SwedAPP cells were seeded on glass cover slips at a density of 0.5×10^5 viable cells per well in a 24-well plate. […]

[3] = test system: N2a-SwedAPP cells; test: Western blot of N2a-SwedAPP cell lysates (p-Akt, pGSK3, CTFs, p-APP, PHF-1); format: cell-based, mouse
Description: N2a-SweAPP cells are mouse neuroblastoma N2a cells stably transfected with human Swedish mutant APP695, and were gifts from Dr. Gopal Thinakaran (University of Chicago, Chicago Ill.). Cells were maintained in Dulbecco's modified Eagle's medium (DMEM) (Invitrogen, Carlsbad, Calif.) supplemented with 10% fetal bovine serum, penicillin and streptomycin and 200 μg/mL G418 (Invitrogen). Cells were cultured either in multiwell dishes or on 60 mm tissue culture plates in DMEM 10% with FBS Cell cultures were incubated at 37° C. in a humid 5% CO2/ 95% air environment. After cells were grown close to confluence, they were treated with/without different concentrations of BBR in DMEM (1% FBS) for 24 h. […] For the concentration-dependent treatment, cells were treated with serial dilutions of BBR ranging from 0-20 μM for 2 or 12 h prior to lysis with ice-cold RIPA buffer (20 mM Tris, pH 7.4, 150 mM NaCl, 1% triton-X, 0.5% sodium deoxycholate, EDTA) containing protease inhibitor cocktails (EMD chemicals, Philadelphia, Pa.) to find the optimal range of BBR. For the time-dependent application, cells were treated with a 20 μM concentration of BBR and incubated at time points ranging from 0-180 min prior to lysis. For immunofluorescent staining, N2a-SwedAPP cells were seeded on glass cover slips at a density of 0.5×10^5 viable cells per well in a 24-well plate. Cells on cover slips were treated with BBR (20 μM) for 3 h with or without pretreatment of LY294002 (Cell signaling Technology, Danvers, Mass.), a specific inhibitor of Akt upstream kinase phosphatidylinositol 3-kinase (PI3K) (Vlahos et al., 1994) in serum-free DMEM for 1 h, whereas control cells were incubated with vehicle (DMSO) alone in DMEM.
The brain SDS fraction as described above was used to detect the full-length APP (Fl-APP), APP C-terminal fragments (CTFs: CTF-β and CTF-α), p-APP, p-CTFs, BACE-1, ADAM-10, neprilysin, insulin-degrading enzyme (IDE), GSK3α/β, p-cyclin-dependent kinase 5 (p-CDKS), p-stress-activated protein kinase/Jun-amino-terminal kinase (p-JNK), phospho-tau epitopes and β-actin in Western blot analysis. For cell homogenates preparation, cells were washed with phosphate-buffered saline (PBS) and solubilized in ice-cold RIPA buffer. Equal amounts of protein (30 μg) were subjected to 10 and 15% SDS polyacrylamide gels, transferred onto PVDF membranes (GE Healthcare, Piscataway, N.J.) at 300 mA for 2 h, and then blocked with 5% fat-free milk in Tris-buffered saline and 0.1% Tween-20 for 2 h at room temperature. The membrane was then incubated with primary antibodies overnight at 4C. The antibodies used in Western blots were β-actin (mouse, 1:5000; Santa Cruz, Calif.), p-APP (rabbit, 1:1000; Cell signaling Technology), BACE-1 (rabbit, 1:1000; Abcam, Cambridge, Mass.), ADAM-10 (rabbit, 1:2000; EMD chemicals), insulin-degrading enzyme (IDE) (rabbit, 1:1000, Abcam), neprilysin (rabbit, 1:1000 Millipore, Temecula, Calif.), Akt (rabbit, 1:1000; Cell Signaling Technology), p-Akt (rabbit, 1:1000; Cell signaling), glycogen synthase kinase 3α/β(GSK-3α/β)[Ser21/9] (rabbit, 1:1000; Cell signaling Technology), pGSK-3α/βSer21/9] (rabbit, 1:1000; Cell signaling Technology), Cdk5[Y15] (rabbit, 1:1000; Abcam), JNK (Thr183/Tyr185) (rabbit, 1:1000, Cell signaling Technology), the C-terminal anti-APP antibody CT15 for full-length APP and CTFβ and CTFα (rabbit, 1:2000, and three mouse monoclonal antibodies against phosphorylated tau: AT8 (recognizes phosphorylated tau at Ser-202 and Thr-205, 1:1000, Pierce, Rockford, Ill.), AT180 (recognizes phosphorylated tau at Thr-231 and Ser-235, 1:1000, Pierce) and PHF-1 (recognizes -phosphorylated tau at […] and Ser 404, 1:2000, and one mouse monoclonal against dephosphorylaed tau: Tau-1 (recognizes the tau when serines 195, 198, 199, and 202 are dephosphorylated, 1:2000,). Mouse monoclonal Tau-5 used to recognize total tau (mouse 1:2000). Blots were washed in and incubated with corresponding horseradish peroxidase-conjugated secondary antibody. […]

[4] = Regular oral BBR treatment of TgCRND8 mice: body weight and side effects; details: BBR 25 or 100 mg/kg/d orally for 4 months

COc1ccc2cc3[n+](cc2c1OC)CCc1cc2c(cc1-3)OCO2 [BBR, 5,6-dihydro-9,10-dimethoxybenzo[g]-1,3-benzodioxolo[5,6-a]quinolizinium]
pAPP staining in the endosomal compartments [1]: markedly reduced
cell viability (MTT) [2]: did not affect cell viability
reduction in the level of CTFs ([3]; 5 μM BBR, 12 hours): 24%
decrease of p-APP (Thr668) level ([3]; 10 μM BBR, 12 hours): 50%
level of tau bound to PHF-1 decreased to % compared to control ([3]; 10 μM BBR, 12 hours): 30%
amount of phosphorylated GSK3, time course ([3]; 20 μM BBR, 0-180 min, remains higher than control beyond 3 h): increases during the first 30 min
decrease of p-APP (Thr668) level ([3]; 20 μM BBR, 12 hours): 75%
level of tau bound to PHF-1 decreased to % compared to control ([3]; 20 μM BBR, 12 hours): 50%
reduction of CTFs level (of basal level), maximal ([3]; 20 μM BBR, 12 hours): 55%
phosphorylation of Akt at Ser 473 and GSK3 at Ser 21 and Ser9, concentration-dependent ([3]; BBR 10 and 20 μM, 3 hours): significant increases
cellular total Akt and GSK3β levels ([3]; BBR treatment): does not significantly affect
animal body weight [4]: does not significantly influence animal body weight
